From ChEMBL document CHEMBL1137477, “Preparation and in vitro anti-staphylococcal activity of novel 11-deoxy-11-hydroxyiminorifamycins” (2007)
Values after ≈ are worked out from the molar mass of the structure shown.

How the values were obtained:
Format in all cases: functional
Staphylococcus aureus [1] = test: Antibacterial activity against rifamycin-resistance Staphylococcus aureus CB372
Staphylococcus aureus [2] = test: Antibacterial activity against rifamycin-sensitive Staphylococcus aureus CB190 ATCC 29213
Staphylococcus aureus [3] = test: Antibacterial activity against rifamycin-resistance Staphylococcus aureus CB370

Row | SMILES | MIC (Staphylococcus aureus [1]) [µg/mL] | MIC (Staphylococcus aureus [2]) [µg/mL] | MIC (Staphylococcus aureus [3]) [µg/mL]
1 | CO[C@H]1/C=C/O[C@@]2(C)Oc3c(C)c(O)c4c(=O)c(c5oc6cc(N7CCN(C(C)C)CC7)cc(O)c6nc-5c4c3/C2=N/O)NC(=O)/C(C)=C\C=C\[C@H](C)[C@H](O)[C@@H](C)[C@@H](O)[C@@H](C)[C@H](OC(C)=O)[C@@H]1C | 1 (≈ 1.06 µM) | 0.008 (≈ 0.00849 µM) | 32 (≈ 34 µM)
2 | CO[C@H]1/C=C/O[C@@]2(C)Oc3c(C)c(O)c4c(=O)c(c5oc6cc(N7CCN(CC(C)C)CC7)cc(O)c6nc-5c4c3/C2=N/O)NC(=O)/C(C)=C\C=C\[C@H](C)[C@H](O)[C@@H](C)[C@@H](O)[C@@H](C)[C@H](OC(C)=O)[C@@H]1C | 2 (≈ 2.09 µM) | 0.004 (≈ 0.00418 µM) | 32 (≈ 33.5 µM)
3 | CO[C@H]1/C=C/O[C@@]2(C)Oc3c(C)c(O)c4c(=O)c(c5oc6cc(N7CCN(CC(C)C)CC7)cc(C)c6nc-5c4c3/C2=N/O)NC(=O)/C(C)=C\C=C\[C@H](C)[C@H](O)[C@@H](C)[C@@H](O)[C@@H](C)[C@H](OC(C)=O)[C@@H]1C | 4 (≈ 4.19 µM) | 0.008 (≈ 0.00838 µM) | > 64
4 | CO[C@H]1/C=C/O[C@@]2(C)Oc3c(C)c(O)c4c(=O)c(c5oc6cc(N7CCN(C)CC7)cc(C)c6nc-5c4c3/C2=N/O)NC(=O)/C(C)=C\C=C\[C@H](C)[C@H](O)[C@@H](C)[C@@H](O)[C@@H](C)[C@H](OC(C)=O)[C@@H]1C | 1 (≈ 1.1 µM) | 0.004 (≈ 0.00439 µM) | 16 (≈ 17.5 µM)
5 | CCN1CCN(c2cc(O)c3nc4c5c6c7c(C)c(O)c5c(=O)c(c-4oc3c2)NC(=O)/C(C)=C\C=C\[C@H](C)[C@H](O)[C@@H](C)[C@@H](O)[C@@H](C)[C@H](OC(C)=O)[C@H](C)[C@@H](OC)/C=C/O[C@@](C)(O7)/C6=N\O)CC1 | 2 (≈ 2.16 µM) | 0.008 (≈ 0.00862 µM) | 32 (≈ 34.5 µM)
6 | CCCCN1CCN(c2cc(O)c3nc4c5c6c7c(C)c(O)c5c(=O)c(c-4oc3c2)NC(=O)/C(C)=C\C=C\[C@H](C)[C@H](O)[C@@H](C)[C@@H](O)[C@@H](C)[C@H](OC(C)=O)[C@H](C)[C@@H](OC)/C=C/O[C@@](C)(O7)/C6=N\O)CC1 | 2 (≈ 2.09 µM) | 0.004 (≈ 0.00418 µM) | 16 (≈ 16.7 µM)
7 | CO[C@H]1/C=C/O[C@@]2(C)Oc3c(C)c(O)c4c(=O)c(c5oc6cc(N7CCN(CC(C)C)CC7)ccc6nc-5c4c3/C2=N/O)NC(=O)/C(C)=C\C=C\[C@H](C)[C@H](O)[C@@H](C)[C@@H](O)[C@@H](C)[C@H](OC(C)=O)[C@@H]1C | 0.5 (≈ 0.532 µM) | 0.004 (≈ 0.00425 µM) | 8 (≈ 8.51 µM)
8 | CO[C@H]1/C=C/O[C@@]2(C)Oc3c(C)c(O)c4c(c3/C2=N/O)C(=O)C=C(NC(=O)/C(C)=C\C=C\[C@H](C)[C@H](O)[C@@H](C)[C@@H](O)[C@@H](C)[C@H](OC(C)=O)[C@@H]1C)C4=O | 0.5 (≈ 0.703 µM) | 0.002 (≈ 0.00281 µM) | 32 (≈ 45 µM)
9 | CO[C@H]1/C=C/O[C@@]2(C)Oc3c(C)c(O)c4c(=O)c(c5oc6cc(N7CCN(CC8CCCCC8)CC7)ccc6nc-5c4c3/C2=N/O)NC(=O)/C(C)=C\C=C\[C@H](C)[C@H](O)[C@@H](C)[C@@H](O)[C@@H](C)[C@H](OC(C)=O)[C@@H]1C | 2 (≈ 2.04 µM) | 0.008 (≈ 0.00816 µM) | 16 (≈ 16.3 µM)
10 | CO[C@H]1/C=C/O[C@@]2(C)Oc3c(C)c(O)c4c(=O)c(c5oc6cc(N7CCN(CC8CCCCC8)CC7)cc(O)c6nc-5c4c3/C2=N/O)NC(=O)/C(C)=C\C=C\[C@H](C)[C@H](O)[C@@H](C)[C@@H](O)[C@@H](C)[C@H](OC(C)=O)[C@@H]1C | 8 (≈ 8.03 µM) | 0.008 (≈ 0.00803 µM) | 8 (≈ 8.03 µM)
11 | CO[C@H]1/C=C/O[C@@]2(C)Oc3c(C)c(O)c4c(=O)c(c5oc6cc(N7CCN(CC8CCN(C)CC8)CC7)cc(O)c6nc-5c4c3/C2=N/O)NC(=O)/C(C)=C\C=C\[C@H](C)[C@H](O)[C@@H](C)[C@@H](O)[C@@H](C)[C@H](OC(C)=O)[C@@H]1C | 4 (≈ 3.96 µM) | 0.13 (≈ 0.129 µM) | 32 (≈ 31.6 µM)
12 | CO[C@H]1/C=C/O[C@@]2(C)Oc3c(C)c(O)c4c(=O)c(c5oc6cc(N7CCN(C(C)C)CC7)ccc6nc-5c4c3/C2=N/O)NC(=O)/C(C)=C\C=C\[C@H](C)[C@H](O)[C@@H](C)[C@@H](O)[C@@H](C)[C@H](OC(C)=O)[C@@H]1C | 0.12 (≈ 0.13 µM) | 0.0005 (≈ 0.00054 µM) | 8 (≈ 8.64 µM)
13 | CO[C@H]1/C=C/O[C@@]2(C)Oc3c(C)c(O)c4c(=O)c(c5oc6cc(N7CCN(C)CC7)cc(O)c6nc-5c4c3/C2=N/O)NC(=O)/C(C)=C\C=C\[C@H](C)[C@H](O)[C@@H](C)[C@@H](O)[C@@H](C)[C@H](OC(C)=O)[C@@H]1C | 1 (≈ 1.09 µM) | 0.004 (≈ 0.00438 µM) | 32 (≈ 35 µM)
14 | CO[C@H]1/C=C/O[C@@]2(C)Oc3c(C)c(O)c4c(=O)c(c5oc6cc(N7CCN(CC(C)C)CC7)cc(O)c6nc-5c4c3C2=O)NC(=O)/C(C)=C\C=C\[C@H](C)[C@H](O)[C@@H](C)[C@@H](O)[C@@H](C)[C@H](OC(C)=O)[C@@H]1C [RIFALAZIL] | 2 (≈ 2.13 µM) | 0.004 (≈ 0.00425 µM) | 32 (≈ 34 µM)
15 | CO[C@H]1/C=C/O[C@@]2(C)Oc3c(C)c(O)c4c(O)c(c(/C=N/N5CCN(C)CC5)c(O)c4c3C2=O)NC(=O)/C(C)=C\C=C\[C@H](C)[C@H](O)[C@@H](C)[C@@H](O)[C@@H](C)[C@H](OC(C)=O)[C@@H]1C [RIFAMPIN] | 16 (≈ 19.4 µM) | 0.008 (≈ 0.00972 µM) | > 64
16 | CO[C@H]1/C=C/O[C@@]2(C)Oc3c(C)c(O)c4c(c3C2=O)C(=O)C=C(NC(=O)/C(C)=C\C=C\[C@H](C)[C@H](O)[C@@H](C)[C@@H](O)[C@@H](C)[C@H](OC(C)=O)[C@@H]1C)C4=O [RIFAMYCIN S] | 4 (≈ 5.75 µM) | 0.016 (≈ 0.023 µM) | > 64
17 | CO[C@H]1/C=C/O[C@@]2(C)Oc3c(C)c(O)c4c(O)c(cc(O)c4c3C2=O)NC(=O)/C(C)=C\C=C\[C@H](C)[C@H](O)[C@@H](C)[C@@H](O)[C@@H](C)[C@H](OC(C)=O)[C@@H]1C [RIFAMYCIN] | 2 (≈ 2.87 µM) | 0.016 (≈ 0.0229 µM) | > 64
